The record followed here is article PMC4104029, “Mechanism of Action of Compound-13: An α1-Selective Small Molecule Activator of AMPK” (Chemistry & Biology, 2014).

Molecules are shown by their SMILES.

For this test, the system named is rat liver AMPK (mixture of α1β1γ1 and α2β1γ1). Nature of the test: Rat liver AMPK activation assay. It is filed as biochemical. As to conditions: for EC50: 0.2 mM ATP and 0.2 mM AMARA. On the procedure:
AMPK phosphotransferase activity was assayed in reactions (50 μl) containing 50 mM HEPES, pH 7.4, 10 mM MgCl2, 0.1 mM EGTA, 1 mM DTT, 0.01% BRIJ-35, 100 μM [γ-^32P]ATP (∼250 CPM⋅pmol^−1) and 200 μM AMARA (AMARAASAAALARRR). Reactions were started by the addition of AMPK (5 mU), incubated for 20 min at 30°C and quenched by spotting onto P81 and immersion in 75 mM H3PO4. Washed filters were dried and [^32P] incorporation determined by Cherenkov counting. AMPK activity in cell extracts was determined by immunoprecipitation with AMPKα1 or AMPKα2 antibodies from 50 μg material, as previously described ([Hunter et al., 2011]). Results are expressed as picomoles Pi incorporated per minute-milligram or the fold increase in activity compared to controls in the absence of the compound and were fitted to the following equation: v=vo+{(vmax−vo)[A]^h/Kah+[A]^h}, where v is the velocity, vo is the velocity in the absence of compound, [A] is the concentration of activator, Ka is the concentration of activator that increases velocity to 50% maximal stimulated activity, and h is the Hill coefficient. […]
Figure S3, related to Figure 2. C2 is a partial agonist of rat liver AMPK and is antagonised by ADP but has no effect on isolated AMPKα subunits. (A) Full-length human AMPKα1 and α2 subunits were prepared in E.coli and activated with CAMKK as described in Methods. Isolated AMPKα subunits were assayed under standard conditions in the presence of C2 (0 - 1000 nM). Results are expressed normalised to maximal activity in the absence of ligand and represent the average ± SD of three independent experiments on a single preparation of kinase. (B) Rat liver purified AMPK (containing α1 and α2 subunits in complex with β1γ1) was assayed for activation by AMP and C2 in the presence of 0.2 mM ATP and 0.2 mM AMARA as described in Methods. Results are expressed as mean Pi incorporated in nmol.min-1.mg-1 ± SD. (C) Rat liver AMPK was assayed under standard conditions in the presence of saturating AMP (30 µM) and increasing concentrations of C2 (0 - 10 µM). (D) Recombinant AMPK α1β1γ1 was assayed under standard conditions in the presence of 1 μM C2 and increasing concentrations of ADP (0 - 200 μM). Results are expressed as fold increase in activity relative to controls in the absence of compound ± SD.
(E) C2 and AMP displace a GST-AMPKγ2 subunit fusion from ATP-γ-Sepharose. A purified C-terminal fragment of AMPKγ2 bearing CBS domains 1-4 was absorbed onto ATP- […]
Sepharose. […]
PAGE and staining with colloidal Coomassie. (F) Recombinant PP2Cα was assayed by monitoring the release of phosphate from 100 μM EFLR(pT)SCGS in the presence of increasing concentrations of C2 (0 – 100 μM). The plant alkaloid, sanguinarine was included as a positive control for inhibition of phosphatase activity. […]

As usually defined, the EC50 is the concentration giving half of the maximal effect. For `Nc1ncnc2c1ncn2[C@@H]1O[C@H](COP(=O)(O)O)[C@@H](O)[C@H]1O` [AMP, reference compound], the EC50 came to 3600 ± 200 nM.
As for `O=P(O)(O)c1ccc(-c2cc(O)on2)o1` [Compound C2, 5-(5-hydroxyl-isoxazol-3-yl)-furan-2-phosphonic acid], the “extent of activation compared with AMP” value was “only half the extent” and the EC50 amounted to 65 ± 4 nM. Also, the “reduction of activity stimulated by 30 μM AMP” value (C2 0–10 µM) was “≈ 50%”.
